Laboratory results taken from the supplement of paper PMC10307832.

Columns and labels:
Test in all cases: relative viability (nuclei count vs DMSO), 5 days (fraction); higher = more cells survive
QS11 + Alpelisib = compound: C1CC2=C(C1)C=C(C=C2)OC3=NC(=C4C(=N3)N(C=N4)CC5=CC=C(C=C5)C6=CC=CC=C6)N[C@@H](CC7=CC=CC=C7)CO [QS11] + Cc1nc(NC(=O)N2CCC[C@H]2C(N)=O)sc1-c1ccnc(C(C)(C)C(F)(F)F)c1 [Alpelisib] (partner 2 µM)
Method in brief: (§1)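 Nuclei were stained with Hoechst during a one-step fixation (final 0.05% Triton X-100, 1% formaldehyde, 1 ug/ml Hoechst) carried out 5 days after dosing, then counted on 4× images. The cells, lung cancer lines in 1536-well plates, had been dosed by pin tool the day after seeding with one drug alone or a fixed anchor-drug dose plus five library-drug doses (not always all listed) in √10 steps. Relative viability is the nuclei count in treated wells divided by that in vehicle wells, and each value is the median of duplicate plates.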

[1] = compound: C[As](C)SC[C@H](NC(=O)CC[C@H](N)C(=O)O)C(=O)NCC(=O)O [Darinaparsin] + N=C(N)NC(=N)NCCc1ccccc1 [Phenformin] (partner 250 µM)
Method in brief: as §1

[2] = compound: C[As](C)SC[C@H](NC(=O)CC[C@H](N)C(=O)O)C(=O)NCC(=O)O [Darinaparsin] + CS(=O)(=O)N1CCN(Cc2cc3nc(-c4cccc5[nH]ncc45)nc(N4CCOCC4)c3s2)CC1 [Pictilisib] (partner 1 µM)
Method in brief: as §1

AZ628 + Decitabine = compound: CC1=C(C=C(C=C1)NC(=O)C2=CC(=CC=C2)C(C)(C)C#N)NC3=CC4=C(C=C3)N=CN(C4=O)C [AZ628] + Nc1ncn([C@H]2C[C@H](O)[C@@H](CO)O2)c(=O)n1 [Decitabine] (partner 2 µM)
Method in brief: as §1

Row | Cell Line | relative viability (QS11 + Alpelisib; first compound 0.08 µM) | relative viability (QS11 + Alpelisib; first compound 0.253 µM) | relative viability (QS11 + Alpelisib; first compound 0.8 µM) | relative viability (QS11 + Alpelisib; first compound 2.53 µM) | relative viability (QS11 + Alpelisib; first compound 8 µM) | relative viability ([1]; first compound 0.08 µM) | relative viability ([1]; first compound 0.8 µM) | relative viability ([1]; first compound 2.53 µM) | relative viability ([1]; first compound 8 µM) | relative viability ([2]; first compound 0.08 µM) | relative viability ([2]; first compound 0.8 µM) | relative viability ([2]; first compound 2.53 µM) | relative viability ([2]; first compound 8 µM) | relative viability (AZ628 + Decitabine; first compound 0.08 µM) | relative viability (AZ628 + Decitabine; first compound 0.253 µM) | relative viability (AZ628 + Decitabine; first compound 0.8 µM) | relative viability (AZ628 + Decitabine; first compound 2.53 µM) | relative viability (AZ628 + Decitabine; first compound 8 µM)
1 | 201T | 1.02 | 1.07 | 0.92 | 1.08 | 0.949 | 0.478 | 0.451 | 0.404 | 0.5 | 0.757 | 0.622 | 0.623 | 0.767 | 0.869 | 0.859 | 0.874 | 0.911 | 0.858
2 | A549 | 0.912 | 0.757 | 0.691 | 0.451 | 0.215 | 0.121 | 0.114 | 0.192 | 0.163 | 0.601 | 0.517 | 0.344 | 0.653 | 0.262 | 0.24 | 0.268 | 0.287 | 0.206
3 | A-427 | 1.03 | 1.16 | – | 1.06 | 1.11 | 0.348 | 0.316 | 0.298 | 0.36 | 0.893 | 0.761 | 0.757 | 0.856 | 0.58 | 0.582 | 0.494 | 0.52 | 0.451
4 | ABC-1 | 0.89 | 1.02 | 0.932 | 0.945 | 1.21 | 0.256 | 0.21 | 0.234 | 0.264 | 0.793 | 0.648 | 0.738 | 0.904 | 1.07 | 0.898 | 1.07 | 1.18 | 1.07
5 | BEN | 0.772 | 1.22 | 1.12 | 1.01 | 1.29 | 0.263 | 0.268 | 0.263 | 0.265 | 0.709 | 0.636 | 0.498 | 0.659 | 0.758 | 0.637 | 0.651 | 0.668 | 0.735
6 | CAL-12T | 1.28 | 1.13 | 1.25 | 0.952 | 1.06 | 0.657 | 0.534 | 0.478 | 0.605 | 0.392 | 0.335 | 0.473 | 0.478 | – | – | – | – | –
7 | COR-L23 | 0.828 | 0.665 | 0.698 | 0.589 | 0.617 | 0.544 | 0.405 | 0.379 | 0.566 | 1.06 | 0.706 | 0.41 | 0.932 | 0.471 | 0.43 | 0.349 | 0.453 | 0.27
8 | COR-L 105 | 0.931 | 0.946 | 1.13 | 0.745 | 0.771 | 0.505 | 0.486 | 0.433 | 0.451 | 0.446 | 0.411 | – | 0.429 | 0.74 | 0.692 | 0.668 | 0.613 | 0.559
9 | Calu-6 | 0.98 | 0.974 | 0.856 | 0.99 | 0.884 | – | – | – | – | 1.2 | 0.801 | 0.924 | 0.988 | – | – | – | – | –
10 | ChaGo-K-1 | – | – | – | – | – | 0.494 | 0.535 | 0.515 | 0.575 | 0.947 | 0.693 | 0.732 | 0.662 | 0.548 | 0.504 | 0.558 | 0.524 | 0.481
11 | EBC-1 | 0.932 | 0.77 | 0.76 | 0.816 | 0.667 | – | – | – | – | 0.393 | 0.359 | 0.433 | 0.288 | – | – | – | – | –
12 | EKVX | 0.895 | 0.821 | – | 0.86 | 0.906 | 0.244 | 0.24 | 0.228 | 0.243 | 0.508 | 0.404 | 0.452 | 0.488 | 0.367 | 0.369 | 0.401 | 0.266 | 0.287
13 | EMC-BAC-2 | 0.802 | 0.698 | 0.887 | 0.759 | 0.594 | 0.559 | 0.505 | 0.514 | 0.559 | 0.607 | 0.501 | 0.582 | 0.568 | 0.944 | 0.84 | 0.874 | 0.749 | 0.465
14 | EPLC-272H | 0.931 | 0.934 | 1.04 | 1.04 | 1.1 | – | 0.237 | 0.251 | 0.267 | 0.295 | 0.332 | 0.266 | 0.311 | 0.297 | 0.328 | 0.371 | 0.319 | 0.225
15 | H3255 | 0.782 | 0.773 | – | 0.671 | 0.903 | 0.381 | 0.384 | 0.363 | 0.332 | 0.474 | 0.429 | 0.421 | 0.514 | 0.723 | 0.504 | 0.567 | 0.51 | 0.379
16 | HARA | 0.691 | 0.944 | – | 0.872 | 0.917 | 0.542 | 0.416 | 0.38 | 0.728 | 0.393 | 0.371 | 0.324 | 0.413 | 0.414 | 0.441 | 0.461 | 0.448 | 0.289
17 | HCC-15 | 0.749 | 1.01 | – | 0.936 | 0.731 | 0.642 | 0.481 | 0.353 | 0.61 | 0.879 | 0.71 | 0.72 | 0.92 | 0.633 | 0.521 | 0.426 | 0.481 | 0.29
18 | HCC-44 | 0.837 | 0.755 | 0.659 | 0.728 | 0.476 | 0.312 | 0.197 | 0.223 | 0.169 | 0.852 | 0.574 | 0.44 | 0.677 | 0.97 | 0.999 | 1 | 0.953 | 0.947
19 | HCC-78 | 0.411 | 0.31 | 0.401 | 0.43 | 0.321 | 0.728 | 0.772 | 0.819 | 0.745 | 0.191 | 0.228 | 0.246 | 0.267 | 0.734 | 0.629 | 0.771 | 0.787 | 0.848
20 | HCC-366 | 0.55 | 0.361 | – | 0.296 | 0.244 | 0.65 | 0.649 | 0.588 | 0.665 | 0.108 | 0.13 | 0.158 | 0.162 | 0.345 | 0.313 | 0.269 | 0.292 | 0.182
